{"source": "patent US8150136B2", "about": "“Image based quantitation of molecular translocation” (Amnis Corporation, priority 2005, dated 2012)", "system": "NF-κB nuclear translocation in THP-1 cells", "assay": "LPS-induced nuclear translocation of NF-κB in THP-1 cells, multispectral imaging flow cytometry (ImageStream), NF-κB/7-AAD Similarity", "format": "cell-based, human", "procedure": "Untreated (a) and LPS treated (b) THP-1 cells were prepared as described in FIG. 4 and imaged in flow using the ImageStream 100 platform. […] Each gated population has an associated image gallery that can be visually inspected. The image galleries here display the NF-κB image adjacent to a composite image (green NF-κB/red 7-ADD) for each object within a given population.\nIn order to quantitate the extent of NF-κB nuclear translocation in A-549 cells treated with TNF-α/IL-β, the degree of pixel intensity between the NF-κB and nuclear images of cell within a masked region of interest was analyzed. The NF-κB image of a cell with a high degree of translocation will look qualitatively similar to the nuclear image of that cell, resulting in a high degree of correlation between the two images. In contrast, the NF-κB image of a cell without any translocation will have little signal in the nuclear space, resulting in an inverse correlation with the nuclear image. […] Two features were calculated, the correlation coefficient (ρ) and, in this case, similarity is calculated as a logarithmic transformation of ρ, which features are represented by the following formula, respectively: ρ(X,Y)=Cov(X,Y)/(σX σY) Similarity=ln(1+ρ)/(1−ρ) As set forth herein, ρ measures the degree to which the spatial distribution of intensities over two separate images is correlated, with a range from −1 (inverse correlation) to +1 (complete correlation). Here, similarity values range from −∞ to +∞, allowing standard statistical comparisons (means and standard deviations) between groups to be made. Histogram overlays of NF-κB/7-AAD correlation and similarity allows the differentiation of untreated (green) A-549 cells from TNF-α/IL-1β treated (red) A-549 cells. As described herein, the fidelity of these classifiers can be validated by inspection of the image galleries of the cells. Mask Determination\nBy way of background and […], NF-κB resides predominantly in the cytoplasm in resting cells. Activating treatments (e.g., IL-1β/TNF-α or LPS) induce NF-κB translocation into the nucleus in responsive cell types. Thus, the ratio of nuclear to cytoplasmic NF-κB increases with LPS treatment. Similar to the A-549 cells, NF-κB is translocated from the cytoplasm to the nucleus when the non-adherent human monocyte cell line, THP-1, is exposed to lipopolysaccharide (LPS). […] A nuclear and NF-κB pixel signal correlation analysis CCF was used to quantitate the difference between untranslocated NF-κB and NF-κB translocated to the cell nucleus. The CCF distinguished location-specific (nuclear and cytoplasmic) quantitation of NF-κB to distinguish LPS-treated from untreated THP-1 cells. Thus, the methods of the present disclosure may also be used with non-adherent cells and cell lines.\nHuman monocyte cell line THP-1, obtained from ATCC (Rockville, Md.), were maintained in RPMI 1640 (Gibco, Grand Island, N.Y.) containing 5% fetal bovine serum, 1 mM sodium pyruvate (Mediatech, Herndon, Va.), 100 μM nonessential amino acids, 100 U/ml penicillin, 100 μg/ml streptomycin, and 2 mM L-glutamine (BioWhittaker, Walkersville, Md.) in 5% CO2 atmosphere at 37° C. The density of exponentially growing cells was less than 3×10^5 cells per ml at the time of all treatments. To induce NF-κB translocation into the nucleus from the cytoplasm, cells were treated for 1 hr with LPS.\nThe following is the experimental procedure for LPS-induced Nuclear Translocation of NF-κB in THP-1 cells. […]"}
{"substance": "Lipopolysaccharide [LPS]", "values": [{"measurement": "NF-κB/7-AAD Similarity value (median similarity value) of translocated cells", "setting": "LPS treated THP-1 cells, 'High Similarity' (translocated) gated population, untreated: 2.98 +/−0.35", "result": "3.35 +/−0.48"}, {"measurement": "NF-κB/7-AAD Similarity value of untranslocated cells", "setting": "LPS treated THP-1 cells, 'Low Similarity' (untranslocated) gated population, untreated: −1.36 +/−0.84", "result": "−0.76 +/−0.64"}, {"measurement": "percentage of Medium Similarity cells", "setting": "LPS treated THP-1 cells, diffuse NF-κB staining pattern, untreated 3.6%", "result": 27.6, "unit": "%"}, {"measurement": "percentage of NF-κB-translocated cells", "setting": "LPS treated THP-1 cells, untreated 0.71%", "result": 44.6, "unit": "%"}, {"measurement": "nuclear localization of NF-κB by CCF, treated versus untreated cells", "setting": "THP-1 cells, LPS-treated vs untreated", "result": "a quantifiable difference in the nuclear localization NF-κB is demonstrated"}]}
